Patent US8343961B2, “Substituted heterocyclic compounds” (ArQule, Inc., priority 2009, dated 2013)

Assays:
KATO III = assay: MTS Cellular Assay, KATO III; assay type: cell-based; details: Homo sapiens, 72 hours
Description: (§1) Cells were maintained at 37° C., 5% CO2 in DMEM media supplemented with 1% fetal bovine serum, penicillin/streptomycin and fungizone (Invitrogen). Cells were seeded into 96-well tissue culture plates at 3000 per well and cultured at 37° C. for 18 hours. Test compounds were dissolved and diluted to 300× in DMSO then further diluted 1:40 in DMEM before addition to cells (1:7.5 dilution). Cells were incubated with test compounds for 72 hours followed by incubation with tetrazolium compound (3-(4,5-dimethylthiazol-2-yl)-5-(3-carboxymethoxyphenyl)-2-(4-sulfophenyl)-2H-tetrazolium, inner salt; MTS) and the electron coupling reagent, phenazine methosulfate (PMS) for 4 hours. […] The ability of compounds to inhibit cell growth in this assay is correlated with the reduction of dehydrogenase enzyme activity found in metabolically active cells. The measurement of the absorbance of the formazan was assessed using an ENVISION™ (Perkin Elmer) microplate reader at 492 nm. The calculated IC50 value is the concentration of the test compound that causes a 50% decrease in the absorbance.

DLD-1 = assay: MTS Cellular Assay, DLD-1; assay type: cell-based; details: Homo sapiens, DLD-1, 72 hours
Description: as §1

PACA-2 = assay: MTS Cellular Assay, PACA-2; assay type: cell-based; details: PACA-2, 72 hours
Description: as §1

NCI-H1299 = assay: MTS Cellular Assay, NCI-H1299; assay type: cell-based; details: Homo sapiens, NCI-H1299, 72 hours
Description: as §1

PC-3 = assay: MTS Cellular Assay, PC-3; assay type: cell-based; details: Homo sapiens, PC-3, 72 hours
Description: as §1

EphA8 = target: T1, EphA8 (Homo sapiens, UniProt P29322); assay: EphA8 Kinase Activity Assay; assay type: biochemical; details: read-out: EphA8, % INH, at 30 uM
T1 sequence (P29322 28-1005): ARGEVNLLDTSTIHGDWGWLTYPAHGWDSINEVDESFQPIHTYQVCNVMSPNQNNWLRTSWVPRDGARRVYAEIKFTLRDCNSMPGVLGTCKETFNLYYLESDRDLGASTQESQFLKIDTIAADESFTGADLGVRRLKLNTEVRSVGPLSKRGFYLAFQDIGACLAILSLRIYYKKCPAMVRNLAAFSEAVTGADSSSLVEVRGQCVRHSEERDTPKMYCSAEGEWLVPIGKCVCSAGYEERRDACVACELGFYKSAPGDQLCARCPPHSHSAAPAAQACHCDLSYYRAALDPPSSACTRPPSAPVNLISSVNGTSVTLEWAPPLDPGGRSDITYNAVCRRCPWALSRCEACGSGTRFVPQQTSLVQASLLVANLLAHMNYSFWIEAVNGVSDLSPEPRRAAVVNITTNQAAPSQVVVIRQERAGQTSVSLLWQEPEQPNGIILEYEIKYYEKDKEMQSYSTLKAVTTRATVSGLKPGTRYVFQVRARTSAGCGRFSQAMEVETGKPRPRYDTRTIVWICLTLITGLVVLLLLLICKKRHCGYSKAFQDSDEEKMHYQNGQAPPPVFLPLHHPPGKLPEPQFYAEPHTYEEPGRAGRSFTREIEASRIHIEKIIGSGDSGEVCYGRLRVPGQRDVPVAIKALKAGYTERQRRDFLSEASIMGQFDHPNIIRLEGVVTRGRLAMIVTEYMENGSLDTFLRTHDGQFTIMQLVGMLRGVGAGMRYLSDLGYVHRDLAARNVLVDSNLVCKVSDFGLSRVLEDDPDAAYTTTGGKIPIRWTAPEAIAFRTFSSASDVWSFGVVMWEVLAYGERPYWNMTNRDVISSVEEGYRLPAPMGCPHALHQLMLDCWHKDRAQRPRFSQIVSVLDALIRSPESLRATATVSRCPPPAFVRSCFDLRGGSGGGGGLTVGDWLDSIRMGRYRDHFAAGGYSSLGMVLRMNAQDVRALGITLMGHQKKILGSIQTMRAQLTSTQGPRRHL
Description: Nunc Maxisorb plates are coated with streptavidin by overnight incubation with 100 μL per well of 1 μg/ml Streptavidin in DPBS. Prior to the start of the experiment, the plates are washed with TBST (3×200 μL) and blocked for at least 1 hour by adding 150 μL of 5% BSA/TBST. The plates are washed with TBST (3×200 μL/well) and left dry immediately before the capture step.
The test articles and control (Staurosporine) are prepared using the following assay buffer @ 3× desired final concentration (50 mM Tris-HCl, 0.02 mg/ml BSA, 10 mM MgCl2, 0.1 mM Na3VO4, 1 mM EGTA, 12.5 μM ATP, 0.01% NP-40, 1 mM DTT in 10% glycerol/water). In a reaction plate are added rapidly 20 μl test article (or control) and 20 μl EphA8 (0.12 ng/μl final concentration). The plate is incubated for 15 minutes. To the reaction plate is added 20 μl of Pyk-2 (0.75 ng/μl final concentration). The plate is incubated at room temperature for one hour. From the reaction plate, 50 μl is transferred to the streptavidin coated plate. The capture plate is incubated at room temperature for 30 minutes, then washed 6× with TBST. To the capture plate is added 100 μL/well of Cell Signaling anti-phospho tyrosine at a dilution of 1:3000 in 2% BSA/TBST. The plate is incubated for one hour at room temperature then washed 6× with TBST. To the capture plate is added 100 μL/well of Alkaline Phosphatase Tagged Goat anti Mouse Antibody at a dilution of 1:4000 in 2% BSA/TBST. The plate is incubated for one hour at room temperature then washed 6× with TBST. The fluorescent readout is initiated by the addition of 100 μl/well of Attophos reagent (6 mg/10 mL). The reading is done on the Perkin Elmer Envision system.

MDA-MB-231 = assay: MTS Cellular Assay, MDA-MB-231; assay type: cell-based; details: Homo sapiens, MDA-MB-231, 72 hours
Description: as §1

Structure (SMILES)	inhibition at 30 µM (EphA8)	inhibition at 10 µM (KATO III)	inhibition at 10 µM (DLD-1)	inhibition at 10 µM (PACA-2)	inhibition at 10 µM (NCI-H1299)	inhibition at 10 µM (PC-3)	inhibition at 10 µM (MDA-MB-231)
Nc1nc(N2CCN(Cc3ccccc3Cl)c3ccccc3C2)c2cn[nH]c2n1 [Compound 14, 4-[1-(2-chlorobenzyl)-1,2,3,5-tetrahydro-4H-1,4-benzodiazepin-4-yl]-1H-pyrazolo[3,4-d]pyrimidin-6-amine]	< 50%	> 79%	> 79%	< 50%	50 to 79%	> 79%	> 79%
Nc1nc(N2CCN(Cc3cccc(C(F)(F)F)c3)c3ccccc3C2)c2cn[nH]c2n1 [Compound 21, 4-{1-[3-(trifluoromethyl)benzyl]-1,2,3,5-tetrahydro-4H-1,4-benzodiazepin-4-yl}-1H-pyrazolo[3,4-d]pyrimidin-6-amine]	< 50%	> 79%	> 79%	< 50%	< 50%	> 79%	> 79%
COc1ccc(CN2CCN(c3nc(N)nc4[nH]ncc34)Cc3ccccc32)cc1OC [Compound 28, 4-[1-(3,4-dimethoxybenzyl)-1,2,3,5-tetrahydro-4H-1,4-benzodiazepin-4-yl]-1H-pyrazolo[3,4-d]pyrimidin-6-amine]	< 50%	> 79%	> 79%	> 79%	> 79%	> 79%	> 79%
Nc1nc(N2CCN(Cc3ccc(Cl)cc3Cl)c3ccccc3C2)c2cn[nH]c2n1 [Compound 32, 4-[1-(2,4-dichlorobenzyl)-1,2,3,5-tetrahydro-4H-1,4-benzodiazepin-4-yl]-1H-pyrazolo[3,4-d]pyrimidin-6-amine]	< 50%	50 to 79%	> 79%	< 50%	> 79%	< 50%	< 50%
COc1ccc(OC)c(CN2CCN(c3nc(N)nc4[nH]ncc34)Cc3ccccc32)c1 [Compound 36, 4-[1-(2,5-dimethoxybenzyl)-1,2,3,5-tetrahydro-4H-1,4-benzodiazepin-4-yl]-1H-pyrazolo[3,4-d]pyrimidin-6-amine]	< 50%	> 79%	> 79%	> 79%	> 79%	> 79%	> 79%
Nc1nc(N2CCN(Cc3ccc(F)c(F)c3)c3ccccc3C2)c2cn[nH]c2n1 [Compound 47, 4-[1-(3,4-difluorobenzyl)-1,2,3,5-tetrahydro-4H-1,4-benzodiazepin-4-yl]-1H-pyrazolo[3,4-d]pyrimidin-6-amine]	< 50%						
COc1cc2c(cc1OC)C(c1cccc(Cl)c1F)N(c1nc(N)nc3[nH]cnc13)CC2 (stereo not drawn) [Compound 49, 6-[1-(3-chloro-2-fluorophenyl)-6,7-dimethoxy-3,4-dihydroisoquinolin-2(1H)-yl]-9H-purin-2-amine]	< 50%						
COc1cc2c(cc1OC)C(CCc1ccccc1)N(c1nc(N)nc3[nH]ncc13)CC2 (stereo not drawn) [Compound 51, 4-[6,7-dimethoxy-1-(2-phenylethyl)-3,4-dihydroisoquinolin-2(1H)-yl]-1H-pyrazolo[3,4-d]pyrimidin-6-amine]	< 50%						

Now from value to compound, other results behind:

inhibition at 30 µM (EphA8)	Structure (SMILES)	inhibition at 10 µM (KATO III)	inhibition at 10 µM (DLD-1)	inhibition at 10 µM (PACA-2)	inhibition at 10 µM (NCI-H1299)	inhibition at 10 µM (PC-3)	inhibition at 10 µM (MDA-MB-231)
< 50%	Nc1nc(N2CCN(CCCc3cccc(Cl)c3)c3ccccc3C2)c2cn[nH]c2n1 [Compound 8, 4-{1-[3-(3-chlorophenyl)propyl]-1,2,3,5-tetrahydro-4H-1,4-benzodiazepin-4-yl}-1H-pyrazolo[3,4-d]pyrimidin-6-amine]	< 50%	> 79%	< 50%	50 to 79%	< 50%	< 50%
50 to 79%	Nc1nc(N2CCN(Cc3ccc(Cl)cc3)c3ccccc3C2)c2cn[nH]c2n1 [Compound 23, 4-[1-(4-chlorobenzyl)-1,2,3,5-tetrahydro-4H-1,4-benzodiazepin-4-yl]-1H-pyrazolo[3,4-d]pyrimidin-6-amine]	< 50%	> 79%	< 50%	> 79%	< 50%	50 to 79%
50 to 79%	CC(C)(C)c1ccc(CN2CCN(c3nc(N)nc4[nH]cnc34)Cc3ccccc32)cc1 [Compound 29, 6-[1-(4-tert-butylbenzyl)-1,2,3,5-tetrahydro-4H-1,4-benzodiazepin-4-yl]-9H-purin-2-amine]	< 50%	< 50%	< 50%	< 50%	< 50%	< 50%
< 50%	CC(C)(C)c1ccc(CN2CCN(c3nc(N)nc4[nH]ncc34)Cc3ccccc32)cc1 [Compound 30, 4-[1-(4-tert-butylbenzyl)-1,2,3,5-tetrahydro-4H-1,4-benzodiazepin-4-yl]-1H-pyrazolo[3,4-d]pyrimidin-6-amine]	< 50%	> 79%	< 50%	50 to 79%	< 50%	< 50%
< 50%	Cc1ccc(CCCN2CCN(c3nc(N)nc4[nH]cnc34)Cc3ccccc32)cc1 [Compound 44, 6-{1-[3-(4-methylphenyl)propyl]-1,2,3,5-tetrahydro-4H-1,4-benzodiazepin-4-yl}-9H-purin-2-amine]						
50 to 79%	Cc1ccc(CCCN2CCN(c3nc(N)nc4[nH]ncc34)Cc3ccccc32)cc1 [Compound 45, 4-{1-[3-(4-methylphenyl)propyl]-1,2,3,5-tetrahydro-4H-1,4-benzodiazepin-4-yl}-1H-pyrazolo[3,4-d]pyrimidin-6-amine]						
< 50%	Nc1nc(N2CCN(Cc3ccc(F)c(F)c3)c3ccccc3C2)c2nc[nH]c2n1 [Compound 46, 6-[1-(3,4-difluorobenzyl)-1,2,3,5-tetrahydro-4H-1,4-benzodiazepin-4-yl]-9H-purin-2-amine]						
